Consider 18 compounds from the Kinase Knowledgebase extract (Sharma et al. 2016).

SMILES strings stand for the structures.

The target of this experiment is CDK2 (UniProt P24941). The experiment in a line: Enzyme Assay.
On to `CCOC(=O)c1cc2cnc(Nc3ccc(N4CCNCC4)cc3)nc2n(C2CCCC2)c1=O`, for which the IC50 (commonly the concentration needed to halve the response being measured) is 5950 nM. The figure for `CCOCCOc1cc2cnc(Nc3ccc(N4CCNCC4)cc3)nc2n(C2CCCC2)c1=O` is more than 5000 nM; for `O=c1c(Cc2ccccc2)cc2cnc(Nc3ccc(N4CCNCC4)cc3)nc2n1C1CCCC1` it is more than 5000 nM; for `O=c1c(Br)cc2cnc(Nc3ccccc3)nc2n1C1CCCC1` it is 80 nM.

`Nc1cc2cnc(Nc3ccc(N4CCNCC4)cc3)nc2n(C2CCCC2)c1=O` showed an IC50 of 95 nM. For `CCc1cc2cnc(Nc3ccc(N4CCNCC4)cc3)nc2n(C2CCCC2)c1=O`, the IC50 came out at 142 nM. The IC50 values of the last two compounds are within 1.5-fold of each other. As for `Cc1c(Br)c(=O)n(C2CCCC2)c2nc(Nc3ccc(N4CC(C)NC(C)C4)cc3)ncc12` (stereo not drawn), the IC50 turned out to be 1860 nM. `CCOCCc1cc2cnc(Nc3ccc(N4CCNCC4)cc3)nc2n(C2CCCC2)c1=O` displayed an IC50 of 205 nM. This IC50 lies about 9.1-fold lower than the previous one.

For the compound `Cc1c(Br)c(=O)n(C2CCCC2)c2nc(Nc3ccc(N4CCNC(C)(C)C4)cc3)ncc12`, the IC50 was 1330 nM. `Cc1cc2cnc(Nc3ccc(N4CCNCC4)cc3)nc2n(C2CCCC2)c1=O` returned an IC50 of 59 nM. In the case of `O=c1c(F)cc2cnc(Nc3ccc(N4CCNCC4)cc3)nc2n1C1CCCC1` it was 139 nM; in that of `CC(C)n1c(=O)ccc2cnc(Nc3ccc(N4CCNCC4)cc3)nc21`, 84 nM. On to `CC(C)COc1cc2cnc(Nc3ccc(N4CCNCC4)cc3)nc2n(C2CCCC2)c1=O`, for which the IC50 was determined as 3150 nM. In the case of `CC(=O)c1cc2cnc(Nc3ccc(N4CCNCC4)cc3)nc2n(C2CCCC2)c1=O` it was 556 nM. The figure for `O=c1ccc2cnc(Nc3ccc(N4CCNCC4)cc3)nc2n1C1CCCCC1` is 119 nM.

In turn, `CCc1cc2cnc(Nc3ccc(N4CCC(O)CC4)cc3)nc2n(C2CCCC2)c1=O` yielded an IC50 of 179 nM. Compared with the last compound, the IC50 is about 1.5-fold higher. In the case of `O=c1ccc2cnc(Nc3ccc(N4CCNCC4)cc3)nc2n1C1CCCC1` it was 24 nM; in that of `CC(=O)c1c(C)c2cnc(Nc3ccc(N4CCNCC4)cc3)nc2n(C2CCCC2)c1=O`, 233 nM.
